In brackets after ≈: the same amount, converted by molar mass.
How the values were obtained:
[1] = PAMPA (parallel artificial membrane permeability assay)
Protocol: (§1) The assay was conducted as reported previously [15]. The samples were analyzed as described below in mouse plasma stability assay.

[2] = Chemical stability in physiologically-relevant solutions; assay type: physicochemical; conditions: 37 °C; for remaining at 4 h, 10 μM: at 4 h vs time 0
Protocol: Stock solutions of the test compounds (baicalein, compounds 1–7) prepared in MeOH at 10 mM were diluted in 0.1 N HCl and 0.1 M potassium phosphate buffer (pH 6.5 and 7.4) in triplicate to a final concentration of 10 μM. The mixtures were then incubated at 37 °C in a shaking water bath. Samples taken at 0, 1, 2, 3 and 4 h were analyzed by Thermo UltiMate 3000 series HPLC system. Chromatographic separation was performed on an Agilent Eclipse Plus C18 column (100 × 4.6 mm, 3.5 µm) kept at 40 °C with isocratic elution at a flow rate of 0.6 mL/min using a mixture of 0.1 vol% TFA in deionized water and acetonitrile as the mobile phase. The detection wavelengths were 277 and 270 nm for baicalein and compounds 1–7, respectively. Peak areas of the analytes on the UV chromatograms were used to calculate % remaining values at each time points.
The stability of baicalein and of the synthesized carbamate prodrugs (1–7) was determined in solutions mimicking gastric (0.1 N HCl, pH ~ 1), intestinal (pH 6.5 phosphate buffer), and physiological (pH 7.4 phosphate buffer) conditions. […]. […] […]. The degradation of the carbamate prodrugs was accompanied by the formation of baicalein under all conditions in this study (data not shown). Although the exact reason for this pH-dependent stability remains unknown, it is plausible that the side chains of amino acids somehow affect the hydrolysis of the carbamate bond of the prodrugs.

[3] = Kinetic solubility in phosphate buffer (pH 7.4); assay type: physicochemical; conditions: aqueous buffer, kinetic from dmso stock; shake-flask, 0.1 M phosphate buffer (pH 7.4), triplicate
Protocol: Stock solutions of the test compounds (baicalein and compounds 1–7) prepared at 10 mM in DMSO were diluted with 0.1 M potassium phosphate buffer (pH 7.4) in Mini-UniPrep filter vial (PTFE membrane, 0.45 μm) to a final concentration of 500 µM. The mixture was then shaken at 800 rpm for 90 min at rt and filtered by slowly pressing the upper tube of the Mini-Uniprep vial. The filtrate (300 µL) was then transferred to an HPLC vial containing same volume of acetonitrile. Sample analysis was conducted as described above in Chemical stability assay.

[4] = logD7.4 by shake-flask method; assay type: physicochemical; conditions: 0.1 M phosphate buffer (pH 7.4), duplicate
Protocol: The assay was conducted as reported previously. Briefly, 100 µM test solutions were prepared by diluting 10 mM stock solutions of the test compounds (baicalein and compounds 1–7) in 0.1 M potassium phosphate buffer (pH 7.4) saturated with 1-octanol. Standard solutions were prepared by diluting each test solution with the same volume of DMSO in HPLC vials. Partition solutions were prepared by mixing each test solution and 1-octanol saturated with 0.1 M potassium phosphate buffer (pH 7.4) at three different volume ratios, namely 1:0.02, 1:0.2 and 1:2, in HPLC vials. The partition solutions were then vortexed for 1 h at 1500 rpm at rt. The standard solutions and the aqueous phase (bottom layer) of each partition solution were analyzed directly from the HPLC vials as described above in Chemical stability assay. The logD7.4 values were calculated by the following equation: logD7.4=log(2×As/Ap−1)·Vt/Vo where As and Ap are, respectively, the peak areas of the standard and the aqueous phase of the partition solutions and Vt and Vo the volumes of test solution and 1-octanol of the partition solutions.

Mouse pharmacokinetics = assay type: in vivo, male ICR mice; conditions: mice
Protocol: Pharmacokinetic studies were conducted with male ICR mice (8 weeks old; 30–35 g body wt.) purchased from Koatech Company (Pyeongtaek, Korea), as reported previously. Intravenous dosing solutions were prepared in EtOH/20% aqueous HPβCD (10/90 vol%) at 2 and 3 mg/mL for baicalein and compound 2, respectively. Oral dosing solutions were prepared in EtOH/tween 80/20% aqueous HPβCD (10/10/80 vol%) at 1 and 1.5 mg/mL for baicalein and compound 2, respectively. Plasma sample analysis was performed as described above in mouse plasma stability assay.

in vitro = conditions: PAMPA
Protocol: as §1

[5] = pH 6.5 buffer (0.1 M potassium phosphate)
[6] = pH 7.4 buffer (0.1 M potassium phosphate)
[7] = male, ICR, mouse, iv, plasma analyte after single i.v. dose of baicalein 10 mg/kg
[8] = male, ICR, mouse, iv, plasma analyte after single i.v. dose of compound 2 15 mg/kg
[9] = male, ICR, mouse, po, plasma analyte after single p.o. dose of baicalein 10 mg/kg
[10] = male, ICR, mouse, po, plasma analyte after single p.o. dose of compound 2 50 mg/kg
[11] = male, ICR, mouse, in vivo, iv, plasma analyte after single i.v. dose of compound 2 15 mg/kg
[12] = male, ICR, mouse, in vivo, po, plasma analyte after single p.o. dose of compound 2 50 mg/kg

Row | SMILES | half-life at 10 μM ([2]; buffer, pH 1, 0.1 N HCl, 10 μM) [h] | remaining at 4 h, 10 μM ([2]; buffer, pH 1, 0.1 N HCl) [%] | half-life at 10 μM [2, 5] [h] | remaining at 4 h, 10 μM ([2]; pH 6.5 buffer) [%] | half-life at 10 μM [2, 6] [h] | remaining at 4 h, 10 μM ([2]; pH 7.4 buffer) [%] | solubility kinetic at 90 min [3] [µM] | logD [4] | Papp (in vitro) [×10⁻⁶ cm/s] | also measured
1 | CC(C)(C)NCC(O)COc1cccc2c1CC(O)C(O)C2 (stereo not shown) [nadolol, reference compound] | – | – | – | – | – | – | – | – | – | Papp [1]: < 0.1 ×10⁻⁶ cm/s
2 | C[C@H](NC(=O)Oc1cc2oc(-c3ccccc3)cc(=O)c2c(O)c1O)C(=O)O [Compound 6, (S)-2-((((5,6-Dihydroxy-4-oxo-2-phenyl-4H-chromen-7-yl)oxy)carbonyl)amino)propanoic acid] | > 4 | 90.2 ± 4.1 | > 4 | 81.8 ± 1.3 | > 4 | 76.6 ± 1.7 | 400 ± 14.7 (≈ 154 µg/mL) | -0.18 | – | Papp [1]: < 0.01 ×10⁻⁶ cm/s
3 | O=C(O)[C@H]1O[C@@H](Oc2cc3oc(-c4ccccc4)cc(=O)c3c(O)c2O)[C@H](O)[C@@H](O)[C@@H]1O [Baicalin] | – | – | – | – | – | – | – | – | – | time plasma analyte was above the quantitation limit (Mouse pharmacokinetics; after single i.v. dose of 10 mg/kg baicalein): 24 h; time plasma analyte was above the quantitation limit (Mouse pharmacokinetics; after single p.o. dose of 10 mg/kg baicalein, 24 h time course): 24 h; AUC(0-inf) (Mouse pharmacokinetics; [7]): 2600 ± 510 ng·h/mL; AUC(0-t) (Mouse pharmacokinetics; [7]): 2450 ± 490 ng·h/mL; Cmax (Mouse pharmacokinetics; [7]): 4590 ± 870 ng/mL; Tmax (Mouse pharmacokinetics; [7]): 0.1 h; half-life (Mouse pharmacokinetics; [7]): 6.2 ± 2.8 h; AUC(0-inf) (Mouse pharmacokinetics; [8]): 500 ± 170 ng·h/mL; AUC(0-t) (Mouse pharmacokinetics; [8]): 200 ± 88 ng·h/mL; Cmax (Mouse pharmacokinetics; [8]): 90 ± 10 ng/mL; Tmax (Mouse pharmacokinetics; [8]): 0.1 h; half-life (Mouse pharmacokinetics; [8]): 6.6 ± 1.6 h; AUC(0-inf) (Mouse pharmacokinetics; [9]): 4890 ± 1400 ng·h/mL; AUC(0-t) (Mouse pharmacokinetics; [9]): 4420 ± 1440 ng·h/mL; Cmax (Mouse pharmacokinetics; [9]): 2260 ± 670 ng/mL; Tmax (Mouse pharmacokinetics; [9]): 0.2 h; half-life (Mouse pharmacokinetics; [9]): 6.3 ± 3 h; AUC(0-t) (Mouse pharmacokinetics; [10]): 680 ± 210 ng·h/mL; Cmax (Mouse pharmacokinetics; [10]): 130 ± 40 ng/mL; Tmax (Mouse pharmacokinetics; [10]): 6 ± 2.8 h
4 | NS(=O)(=O)c1cc2c(cc1Cl)NCNS2(=O)=O [hydrochlorothiazide] | – | – | – | – | – | – | – | – | < 0.1 | –
5 | COCCc1ccc(OCC(O)CNC(C)C)cc1 (stereo not shown) [metoprolol] | – | – | – | – | – | – | – | – | > 1 | –
6 | CC[C@@H](C)[C@H](NC(=O)Oc1cc2oc(-c3ccccc3)cc(=O)c2c(O)c1O)C(=O)O [Compound 3, (2S,3R)-2-((((5,6-Dihydroxy-4-oxo-2-phenyl-4H-chromen-7-yl)oxy)carbonyl)amino)-3-methylpentanoic acid] | > 4 | 98.9 ± 5 | > 4 | 90.2 ± 1.1 | > 4 | 80.1 ± 2.5 | 447 ± 36.9 (≈ 191 µg/mL) | 0.25 | – | –
7 | CC(C)C[C@H](NC(=O)Oc1cc2oc(-c3ccccc3)cc(=O)c2c(O)c1O)C(=O)O [Compound 1, (S)-2-((((5,6-Dihydroxy-4-oxo-2-phenyl-4H-chromen-7-yl)oxy)carbonyl)amino)-4-methylpentanoic acid] | 1.4 ± 0.3 | 17.4 ± 2.1 | > 4 | 92.9 ± 5 | > 4 | 98 ± 3.6 | 443 ± 65.9 (≈ 189 µg/mL) | 0.39 | – | –
8 | CC(C)NCC(O)COc1cccc2ccccc12 (stereo not shown) [propranolol] | – | – | – | – | – | – | – | – | > 1 | –
9 | C[C@@H](O)[C@H](NC(=O)Oc1cc2oc(-c3ccccc3)cc(=O)c2c(O)c1O)C(=O)O [Compound 4, (2S,3R)-2-((((5,6-Dihydroxy-4-oxo-2-phenyl-4H-chromen-7-yl)oxy)carbonyl)amino)-3-hydroxybutanoic acid] | > 4 | 109 ± 3.4 | 2.8 ± 0.1 | 37.3 ± 0.2 | 1.7 ± 0.1 | 20 ± 1 | 347 ± 11.4 (≈ 144 µg/mL) | -0.05 | – | –
10 | O=C(N[C@H](CO)[C@H](O)c1ccc([N+](=O)[O-])cc1)C(Cl)Cl [chloramphenicol] | – | – | – | – | – | – | – | – | > 1 | –
11 | O=C(O)CNC(=O)Oc1cc2oc(-c3ccccc3)cc(=O)c2c(O)c1O [Compound 7, 2-((((5,6-Dihydroxy-4-oxo-2-phenyl-4H-chromen-7-yl)oxy)carbonyl)amino)acetic acid] | 1.5 ± 0.3 | 23.3 ± 3.6 | > 4 | 82.2 ± 1 | > 4 | 76.7 ± 0.3 | 357.1 ± 1.4 (≈ 133 µg/mL) | -0.39 | – | –
12 | CC(C)[C@H](NC(=O)Oc1cc2oc(-c3ccccc3)cc(=O)c2c(O)c1O)C(=O)O [Compound 2, (S)-2-((((5,6-Dihydroxy-4-oxo-2-phenyl-4H-chromen-7-yl)oxy)carbonyl)amino)-3-methylbutanoic acid] | > 4 | 105 ± 3.5 | > 4 | 92.8 ± 4.2 | > 4 | 74.4 ± 6.6 | 479.2 ± 4.4 (≈ 198 µg/mL) | 0.04 | – | Papp [1]: 0.04 ± 0.02 ×10⁻⁶ cm/s; AUC(0-inf) (Mouse pharmacokinetics; [11]): 88700 ± 43200 ng·h/mL; AUC(0-t) (Mouse pharmacokinetics; [11]): 88600 ± 43200 ng·h/mL; Cmax (Mouse pharmacokinetics; [11]): 65100 ± 4290 ng/mL; Tmax (Mouse pharmacokinetics; [11]): 0.1 h; half-life (Mouse pharmacokinetics; [11]): 1.9 ± 0.6 h; clearance (Mouse pharmacokinetics; male, ICR, mouse, in vivo, iv, single i.v. dose of compound 2 15 mg/kg): 3.33 mL/min/kg; Vd (Mouse pharmacokinetics; male, ICR, mouse, in vivo, iv, single i.v. dose of compound 2 15 mg/kg, read-out: VSS): 0.4 ± 0.1 L/kg; AUC(0-inf) (Mouse pharmacokinetics; [12]): 5820 ± 1710 ng·h/mL; AUC(0-t) (Mouse pharmacokinetics; [12]): 5430 ± 1730 ng·h/mL; Cmax (Mouse pharmacokinetics; [12]): 2930 ± 590 ng/mL; Tmax (Mouse pharmacokinetics; [12]): 0.3 ± 0.09 h; half-life (Mouse pharmacokinetics; [12]): 1.7 ± 0.5 h; bioavailability (Mouse pharmacokinetics; male, ICR, mouse, in vivo, oral bioavailability of compound 2, p.o. 50 mg/kg vs i.v. 15 mg/kg): 2 ± 0.6%

Reference: paper PMC8472512, “Synthesis and Biochemical Evaluation of Baicalein Prodrugs” (Pharmaceutics, 2021)
